Assay results: patent US4314028A, “Fermentation process for producing tallysomycin compounds” (priority 1980, dated 1982)
Where two headings read alike, the source gives them in different places.

Key:
[1] = system: Lymphocytic leukemia P388; test: animal or person; assay type: in vivo, BDF1 mice; settings: for Antitumor activity P388 (ED125): ip, once daily 9 days, dose giving T/C survival of 125%; for Antitumor activity P388 (ED125) / Antitumor therapeutic index P388: copper-chelated form unless otherwise stated; for Antitumor therapeutic index P388: single dose LD50/ED125
In short: (§1)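 P388 (3×10^5 cells) and Lewis lung (5×10^5) i.p. in BDF1 mice, B16 (5×10^5) s.c. in BDF1, Sarcoma 180 ([…]) i.p. in male dd mice. ED125 (Sarcoma 180 ED150) from median-survival T/C, 45 days; B16 ID50 from day-16 tumor size.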

Sarcoma 180 = test: animal or person; assay type: in vivo, dd-strain mice; settings: for ED (T/C 150%): Mus musculus, 216 h, read-out: Antitumor activity S180 (ED150); for ED (T/C 150%) / Antitumor activity S180 (ED150): ip; for Antitumor therapeutic index S180: single dose LD50/ED150
In short: as §1

Lewis lung carcinoma = test: Antitumor activity in mice, Lewis lung carcinoma; assay type: in vivo, BDF1 mice; settings: for Antitumor activity Lewis lung (ED125): once daily 11 days, dose giving T/C survival of 125%; for Antitumor activity Lewis lung (ED125) / Antitumor therapeutic index Lewis Lung: copper-chelated form unless otherwise stated; for Antitumor therapeutic index Lewis Lung: single dose LD50/ED125
Excerpt: The antitumor activity of the tallysomycin derivatives was examined in four experimental tumor systems in mice. Lymphocytic leukemia P388 and Lewis lung carcinoma were implanted intraperitoneally into BDF1 mice of either sex at an inoculum size of 3×10^5 and 5×10^5 cells per mouse, respectively. Sarcoma 180 ascites tumor was inoculated intraperitoneally into male dd-strain mice with […] per mouse. Melanotic melanoma B16 was implanted subcutaneously into BDF1 mice with 5×10^5 cells per mouse. Twenty-four hours after the implantation of tumor cells, graded doses of test compounds were administered to mice intraperitoneally in an injection volume of 0.2 ml. per 10 grams of body weight. Test compounds were given once daily for 9 days (qd 1→9 schedule) except for the mice inoculated with Lewis lung carcinoma which were treated for 11 days (qd 1→11). Death or survival of the treated and non-treated (control) animals was recorded daily during the observation period of 45 days after the implantation of tumor cells, and the median survival time was calculated for each of the test (T) and control (C) groups. […] The actual dose giving a T/C of 125% was estimated by linear regression analysis and defined as the effective dose 125 or ED125. The effective dose 150 (ED150) was employed for the evaluation of antitumor effect against Sarcoma 180. In the B16 melanoma experiment the tumor size was measured on day 16 after tumor inoculation, and the dose giving 50% inhibition of tumor growth (ID50) was calculated from regression lines.
The antitumor therapeutic index was calculated for each derivative from the ratio of toxicity and antitumor activity.

[2] = Acute toxicity, single dose LD50; assay type: in vivo, dd mice; settings: ip, 30 days observation, copper-chelated form unless otherwise stated
Experimental: (§2) Graded doses of test compounds were administered intraperitoneally to groups of dd mice. The injection was given one time only or once daily for 9 consecutive days. Death or survival of the animals was recorded for 30 days after the last dose of test compound to calculate the single or multiple median lethal dose (LD50).

[3] = Subacute toxicity, multiple dose LD50; assay type: in vivo, dd mice; settings: ip, once daily 9 days, 30 days observation; copper-chelated form unless otherwise stated
Experimental: as §2

[4] = system: Aspergillus fumigatus IAM 2593; test: MIC, two-fold agar dilution method; assay type: cell-based; settings: Sabouraud agar
In short: (§3)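 Compounds are diluted two-fold through agar plates: Sabouraud medium for the fungus, nutrient medium for the bacterial strains, including the acid-fast Mycobacterium 607. Organisms are then applied and the minimum inhibitory concentration is recorded.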

[5] = system: Bacillus subtilis PCI 219; test: MIC, two-fold agar dilution method; assay type: cell-based; settings: nutrient agar
In short: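 Two-fold agar dilution; nutrient agar for bacteria, Sabouraud agar for A. fumigatus. MIC = lowest inhibitory concentration.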

[6] = system: Candida albicans IAM 4888; test: MIC, two-fold agar dilution method; assay type: cell-based; settings: Sabouraud agar
In short: as §3

Escherichia coli NIHJ = test: MIC, two-fold agar dilution method; assay type: cell-based; settings: nutrient agar
In short: (§4)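 Agar dilution (2-fold series) on nutrient agar (bacteria) or Sabouraud agar (fungi).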

Mycobacterium 607 = test: MIC, two-fold agar dilution method; assay type: cell-based; settings: nutrient agar
In short: as §3

Proteus mirabilis A9554 = test: MIC, two-fold agar dilution method; assay type: cell-based; settings: nutrient agar
In short: as §4

Sarcina lutea PCI1001 = test: MIC, two-fold agar dilution method; assay type: cell-based; settings: nutrient agar
In short: as §3

[7] = system: Staphylococcus aureus Smith; test: MIC, two-fold agar dilution method; assay type: cell-based; settings: nutrient agar
In short: as §3

[8] = system: Mycobacterium smegmatis strain M6-3; test: Relative antibacterial potency, paper-disc agar diffusion method; assay type: cell-based; settings: relative to tallysomycin A standard=1000 mcg/mg
Experimental: The relative antibacterial potencies (tallysomycin A standard=1000 mcg/mg) of the tallysomycin derivatives were determined by the paper-disc agar diffusion method using Mycobacterium smegmatis strain M6-3 as the assay organism.

[9] = system: lysogenic bacterium E. coli W1709 (λ); test: Prophage induction of lysogenic bacterium (ILB activity); assay type: cell-based; settings: t/c ratio of plaque counts greater than 3.0
In short: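 Plaques counted on agar plates containing test compound and on control plates, following Lein et al. A test/control plaque ratio above 3.0 counted as significant. Value given as the minimum inducible concentration.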

Melanotic melanoma B16 = test: Antitumor activity in mice, melanotic melanoma B16; assay type: in vivo, BDF1 mice; settings: copper-chelated form unless otherwise stated; for Antitumor activity B16 (ID50): ip, once daily 9 days, 50% inhibition of tumor growth, day 16, 23040 min; for Antitumor therapeutic index B16: single dose LD50/ID50
In short: as §1

[10] = once daily 9 days, effective dose 150, survival, copper-chelated form unless otherwise stated
[11] = copper-chelated form unless otherwise stated

SMILES	Antitumor activity P388 (ED125) [1] [mg/kg/day]	ED (T/C 150%) (Sarcoma 180; [10]) [mg/kg/day]	Antitumor activity Lewis lung (ED125) (Lewis lung carcinoma; ip) [mg/kg/day]	LD50 single dose [2] [mg/kg/day]	LD50 multiple dose (qd 1 → 9) [3] [mg/kg/day]	minimum inhibitory concentration (MIC) [4]	minimum inhibitory concentration (MIC) [5]	minimum inhibitory concentration (MIC) [6]	minimum inhibitory concentration (MIC) (Escherichia coli NIHJ)	minimum inhibitory concentration (MIC) (Mycobacterium 607)	minimum inhibitory concentration (MIC) (Proteus mirabilis A9554)	minimum inhibitory concentration (MIC) (Sarcina lutea PCI1001)	minimum inhibitory concentration (MIC) [7]	Antibacterial potency [8]	ILB activity (minimum inducible concentration) [9] [µg/mL]	Antitumor therapeutic index P388 [1]	Antitumor activity S180 (ED150) (Sarcoma 180; [10]) [mg/kg/day]	Antitumor therapeutic index S180 (Sarcoma 180; [11])	Antitumor activity B16 (ID50) (Melanotic melanoma B16) [mg/kg/day]	Antitumor therapeutic index B16 (Melanotic melanoma B16)	other results
Cc1c(N)nc(C(CC(N)=O)NCC(N)C(N)=O)nc1C(=O)NC(C(=O)NC(C)C(O)CC(=O)NC(C(=O)NC(OC1OC(C)C(N)C(O)C1O)C(O)c1nc(-c2nc(C(=O)NCCCC(N)CC(=O)NCCCNCCCCN)cs2)cs1)C(C)O)C(OC1OC(CO)C(O)C(O)C1OC1OC(CO)C(O)C(OC(N)=O)C1O)c1c[nH]cn1 (stereo not drawn) [Tallysomycin A (Cu-free), reference compound]	0.26	0.07	0.13	19	4.4																
Cc1c(N)nc(C(CC(N)=O)NCC(N)C(N)=O)nc1C(=O)NC(C(=O)NC(C)C(O)CC(=O)NC(C(=O)NC(OC1OC(C)C(N)C(O)C1O)C(O)c1nc(-c2nc(C(=O)NCCCNCCCCN)cs2)cs1)C(C)O)C(OC1OC(CO)C(O)C(O)C1OC1OC(CO)C(O)C(OC(N)=O)C1O)c1c[nH]cn1 (stereo not drawn) [Tallysomycin B (Cu-free), reference compound]	0.89	0.06	0.11	46	6.8																
Cc1c(N)nc(C(CC(N)=O)NCC(N)C(N)=O)nc1C(=O)NC(C(=O)NC(C)C(O)CC(=O)NC(C(=O)NC(OC1OC(C)C(N)C(O)C1O)C(O)c1nc(-c2nc(C(=O)NCCC[S+](C)C)cs2)cs1)C(C)O)C(OC1OC(CO)C(O)C(O)C1OC1OC(CO)C(O)C(OC(N)=O)C1O)c1cnc[nH]1.Cl.Cl.Cl.[Cl-] (stereo not drawn) [Tallysomycin S2b]	0.91		0.65	32	2.0	0.8	< 0.05	25	0.4	0.2	1.6	6.3	1.6	300 μ/mg	0.63	35	0.12	267	0.33	97	Antitumor therapeutic index Lewis Lung (Lewis lung carcinoma): 49
Cc1c(N)nc(C(CC(N)=O)NCC(N)C(N)=O)nc1C(=O)NC(C(=O)NC(C)C(O)CC(=O)NC(C(=O)NC(OC1OC(C)C(N)C(O)C1O)C(O)c1nc(-c2nc(C(=O)NCCCCN)cs2)cs1)C(C)O)C(OC1OC(CO)C(O)C(O)C1OC1OC(CO)C(O)C(OC(N)=O)C1O)c1c[nH]cn1 (stereo not drawn) [Tallysomycin S10b (Cu-free)]				42	4.0																ED (T/C 125%) ([1]; Mus musculus, P388, ip, 216 h, read-out: Antitumor activity P388 (ED125)): 0.47 mg/kg/day; ED (T/C 150%) (Sarcoma 180): 0.02 mg/kg/day; ED (T/C 125%) (Lewis lung carcinoma; Mus musculus, Lewis lung carcinoma, ip, 264 h, read-out: Antitumor activity Lewis lung (ED125)): 0.21 mg/kg/day
CNCCCNC(=O)c1csc(-c2csc(C(O)C(NC(=O)C(NC(=O)CC(O)C(C)NC(=O)C(NC(=O)c3nc(C(CC(N)=O)NCC(N)C(N)=O)nc(N)c3C)C(OC3OC(CO)C(O)C(O)C3OC3OC(CO)C(O)C(OC(N)=O)C3O)c3c[nH]cn3)C(C)O)OC3OC(C)C(N)C(O)C3O)n2)n1 (stereo not drawn) [Tallysomycin S11b]	0.28		0.32	21		6.3	0.1	12.5	0.2	0.1	1.6	0.8	3.1	450 μ/mg	0.63	75	0.20	105	0.70	30	Antitumor therapeutic index Lewis Lung (Lewis lung carcinoma): 66
Cc1c(N)nc(C(CC(N)=O)NCC(N)C(N)=O)nc1C(=O)NC(C(=O)NC(C)C(O)CC(=O)NC(C(=O)NC(OC1OC(C)C(N)C(O)C1O)C(O)c1nc(-c2nc(C(=O)NCCCNC(C)c3ccccc3)cs2)cs1)C(C)O)C(OC1OC(CO)C(O)C(O)C1OC1OC(CO)C(O)C(OC(N)=O)C1O)c1c[nH]cn1 (stereo not drawn) [Tallysomycin S14b]	3.0		0.29		16	25	0.4	> 100	0.4	0.2	25	3.1	3.1	1,090 μ/mg	0.04		0.08		0.43		
